Test results: ChEMBL document CHEMBL5385942, “C3-Symmetric ligands in drug design: An overview of the challenges and opportunities ahead” (Bioorg Med Chem Lett, 2024)

What was measured:
Human betaherpesvirus 5 = test: Antiviral activity against HCMV infected in HFF cells assessed as reduction in viral replication; assay type: functional, organism-based; settings: Human betaherpesvirus 5, HFF
Bacillus subtilis = test: Antimicrobial activity against Bacillus subtilis MTCC 441 assessed as zone of inhibition by […]; assay type: functional; for IZ: test concentration or dose not given here
Micrococcus luteus = test: Antimicrobial activity against Micrococcus luteus ATCC 9341 assessed as zone of inhibition by […]; assay type: functional; for IZ: test concentration or dose not given here
Escherichia coli = test: Antimicrobial activity against Escherichia coli ATCC 25922 assessed as zone of inhibition by […]; assay type: functional
HepG2 = test: Cytotoxicity against human HepG2 cells assessed as inhibition of cell growth incubated for 24 to 48 hrs by MTT assay; assay type: functional, cell-based
HeLa = test: Cytotoxicity against human HeLa cells assessed as inhibition of cell growth incubated for 24 hrs by MTT assay; assay type: functional, cell-based
[1] = Growth inhibition of human NCI cells; assay type: functional
MDA-MB-468 = test: Antiproliferative activity against human MDA-MB-468 cells assessed as inhibition of cell growth; assay type: functional, cell-based
MCF7 = test: Antiproliferative activity against human MCF7 cells assessed as inhibition of cell growth incubated for 24 hrs by SRB assay; assay type: functional, cell-based; settings: MCF7, 24 h
T47D = test: Antiproliferative activity against human T47D cells assessed as inhibition of cell growth incubated for 24 hrs by SRB assay; assay type: functional, cell-based
LNCaP = test: Antiproliferative activity against human LNCaP cells assessed as inhibition of cell growth incubated for 24 hrs by SRB assay; assay type: functional, cell-based
[2] = Antiproliferative activity against human SW707 cells assessed as inhibition of cell growth incubated for 24 hrs by SRB assay; assay type: functional, cell-based; settings: SW707, 24 h
A549 = test: Antiproliferative activity against human A549 cells assessed as inhibition of cell growth incubated for 24 hrs by SRB assay; assay type: functional, cell-based; settings: A549, 24 h
Jurkat = test: Antiproliferative activity against human Jurkat cells assessed as inhibition of cell growth incubated for 24 hrs by SRB assay; assay type: functional, cell-based
Staphylococcus aureus = test: Antimicrobial activity against Staphylococcus aureus MTCC 96 assessed as zone of inhibition by […]; assay type: functional
Pseudomonas aeruginosa = test: Antimicrobial activity against Pseudomonas aeruginosa MTCC 741 assessed as zone of inhibition by […]; assay type: functional, organism-based

Molecule `C[C@@H]1CCC2[C@@H](C)[C@H](OC(=O)CCC(=O)OCC(COC(=O)CCC(=O)O[C@@H]3O[C@@H]4O[C@]5(C)CC[C@H]6[C@H](C)CCC([C@H]3C)[C@@]46OO5)COC(=O)CCC(=O)O[C@@H]3O[C@@H]4O[C@]5(C)CC[C@H]6[C@H](C)CCC([C@H]3C)[C@@]46OO5)O[C@@H]3O[C@]4(C)CC[C@@H]1[C@@]23OO4` (stereo partly drawn) has an EC50 (Human betaherpesvirus 5) of 530 nM.
With `O=C(/C=C/c1ccccc1)c1ccc(Oc2nc(Oc3ccc(C(=O)/C=C/c4ccccc4)cc3)nc(Oc3ccc(C(=O)/C=C/c4ccccc4)cc3)n2)cc1` the “inhibition zone (IZ)” value (Bacillus subtilis) was 7 mm, the “inhibition zone (IZ)” value (Micrococcus luteus) was 7 mm and the “inhibition zone (IZ)” value (Escherichia coli) was 6 mm.
Molecule `O=C(N/N=C\c1ccc(N(CCCl)CCCl)cc1)c1cc(C(=O)N/N=C\c2ccc(N(CCCl)CCCl)cc2)cc(C(=O)N/N=C/c2ccc(N(CCCl)CCCl)cc2)c1` has an IC50 (HepG2) of 25 µmol.
For `O=C1c2cccc3cccc(c23)C(=O)N1CCCn1c(CCN(CCc2nc3ccccc3n2CCCN2C(=O)c3cccc4cccc(c34)C2=O)CCc2nc3ccccc3n2CCCN2C(=O)c3cccc4cccc(c34)C2=O)nc2ccccc21`, the IC50 (HeLa) was 150000 nM.
Work on `c1ccc(Sc2nc(Sc3ccccc3)nc(Sc3ccccc3)n2)cc1` yielded a GI50 [1] greater than 100000 nM.
Molecule `c1ccc(Sc2nc(Sc3ccccn3)nc(Sc3ccccn3)n2)nc1` has a GI50 [1] of 3170 nM and an IC50 (MDA-MB-468) of 216000 nM.
For `ClCCCN1CCN(c2nc(N3CCN(CCCl)CC3)nc(N3CCN(CCCl)CC3)n2)CC1`, the IC50 (MCF7) was 18700 nM, the IC50 (T47D) was 620 nM and the IC50 (LNCaP) was 620 nM. It also gave an IC50 [2] of 620 nM, an IC50 (A549) of 620 nM and an IC50 (Jurkat) of 620 nM.
Molecule `c1ccc(Nc2nc(Nc3ccccn3)nc(Nc3ccccn3)n2)nc1` has a GI50 [1] of 49800 nM.
With `NC(=S)N1N=C(c2ccc(Oc3nc(Oc4ccc(C5=NN(C(N)=S)C(c6ccc(Cl)cc6)C5)cc4)nc(Oc4ccc(C5=NN(C(N)=S)C(c6ccc(Cl)cc6)C5)cc4)n3)cc2)CC1c1ccc(Cl)cc1` (stereo not drawn) the “inhibition zone (IZ)” value (Staphylococcus aureus) was 11 mm, the “inhibition zone (IZ)” value (Bacillus subtilis) was 10 mm and the “inhibition zone (IZ)” value (Micrococcus luteus) was 18 mm.
Work on `O=C(/C=C/c1ccc([N+](=O)[O-])cc1)c1ccc(Oc2nc(Oc3ccc(C(=O)/C=C/c4ccc([N+](=O)[O-])cc4)cc3)nc(Oc3ccc(C(=O)/C=C/c4ccc([N+](=O)[O-])cc4)cc3)n2)cc1` yielded an inhibition zone (IZ) (Bacillus subtilis) of 7 mm, an inhibition zone (IZ) (Micrococcus luteus) of 7 mm and an inhibition zone (IZ) (Escherichia coli) of 6 mm. The inhibition zone (IZ) (Pseudomonas aeruginosa) was 7 mm.
